Laboratory results published in PubChem BioAssay (NCI).
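Where inhibition never reached the appropriate level, the endpoint shown equals the highest concentration tested. Otherwise, values were interpolated linearly from a five-concentration, 48-hour dose response in 96-well plates. TGI: total growth inhibition.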

Columns and labels:
Assay in all cases: DTP human tumour cell line panel, 48 h
EKVX NSCLC = system: EKVX NSCLC
HOP-92 NSCLC = system: HOP-92 NSCLC
SNB-75 CNS = system: SNB-75 CNS
MOLT-4 leukemia = system: MOLT-4 leukemia
U251 CNS = system: U251 CNS
K-562 leukemia = system: K-562 leukemia
HCC-2998 colon = system: HCC-2998 colon
NCI-H226 lung = system: NCI-H226 lung
MDA-MB-435 = system: MDA-MB-435
SF-268 CNS = system: SF-268 CNS
SNB-19 CNS = system: SNB-19 CNS
UACC-257 melanoma = system: UACC-257 melanoma
SN12C renal = system: SN12C renal
OVCAR-8 ovarian = system: OVCAR-8 ovarian
SF-295 CNS = system: SF-295 CNS
MCF7 breast = system: MCF7 breast
OVCAR-4 ovarian = system: OVCAR-4 ovarian
NCI-H460 lung = system: NCI-H460 lung
SF-539 CNS = system: SF-539 CNS
HCT-15 colon = system: HCT-15 colon
DU-145 prostate = system: DU-145 prostate
SK-OV-3 ovarian = system: SK-OV-3 ovarian
A498 renal = system: A498 renal
COLO 205 colon = system: COLO 205 colon
HOP-62 NSCLC = system: HOP-62 NSCLC
NCI-H23 lung = system: NCI-H23 lung
SK-MEL-28 melanoma = system: SK-MEL-28 melanoma
MDA-N = system: MDA-N
786-0 renal = system: 786-0 renal
BT-549 breast = system: BT-549 breast
CCRF-CEM leukemia = system: CCRF-CEM leukemia
SK-MEL-5 melanoma = system: SK-MEL-5 melanoma
TK-10 renal = system: TK-10 renal
M14 melanoma = system: M14 melanoma
ACHN renal = system: ACHN renal
RXF 393 renal = system: RXF 393 renal
PC-3 prostate = system: PC-3 prostate
NCI-H522 lung = system: NCI-H522 lung
T-47D breast = system: T-47D breast
IGROV1 ovarian = system: IGROV1 ovarian
NCI/ADR-RES ovarian = system: NCI/ADR-RES ovarian
MDA-MB-231 breast = system: MDA-MB-231 breast
CAKI-1 renal = system: CAKI-1 renal
HT29 colon = system: HT29 colon
SK-MEL-2 melanoma = system: SK-MEL-2 melanoma
HS 578T breast = system: HS 578T breast
A549 NSCLC = system: A549 NSCLC
OVCAR-3 ovarian = system: OVCAR-3 ovarian
SW-620 colon = system: SW-620 colon
KM12 colon = system: KM12 colon
UO-31 renal = system: UO-31 renal
RPMI-8226 leukemia = system: RPMI-8226 leukemia
OVCAR-5 ovarian = system: OVCAR-5 ovarian
HCT-116 colon = system: HCT-116 colon
MALME-3M melanoma = system: MALME-3M melanoma

Measured: TGI

CN=c1c2c(c3[nH]c4ccccc4c4cnc1c34)NCCC2=O
> 10 µM: all assays above
